Drawing on ChEMBL document CHEMBL1136143, “Synthesis and activity of novel benzoxazole derivatives of mannopeptimycin glycopeptide antibiotics” (2003), this text covers MIC for four molecules.

Values after ≈ are worked out from the molar mass of the structure shown.

Assay [1] deals with Staphylococcus haemolyticus. The experiment in a line: In vitro minimum inhibitory concentration against methicillin-susceptible Coagulase-negative Staphylococci (MSCNS) (GC 4551). The format is functional.
Assay [2] deals with Enterococcus faecalis. The experiment in a line: In vitro minimum inhibitory concentration against vancomycin-resistant Enterococcus faecalis (GC 3059). The format is functional.
Assay [3] concerns Streptococcus pneumoniae. The experiment in a line: In vitro minimum inhibitory concentration against Penicillin susceptible Streptococcus pneumoniae (GC 4565).
The test system of assay [4] is Staphylococcus haemolyticus. Put plainly: In vitro minimum inhibitory concentration against methicillin-resistant Coagulase-negative Staphylococci (MRCNS) (GC 4546)). The format is functional.
The subject of assay [5] is Staphylococcus aureus. Put plainly: In vitro minimum inhibitory concentration against Staphylococcus aureus (10strains, including MRSA). The format is functional.
Assay [6] has as its system Staphylococcus aureus. The experiment in a line: In vitro minimum inhibitory concentration against glycopeptide tntermediate Staphylococcus aureus (GC 3066). The format is functional.
Assay [7] deals with Enterococcus faecium. The experiment in a line: In vitro minimum inhibitory concentration against vancomycin-resistant Enterococcus faecium (GC 4558). The format is functional.
For assay [8], the system named is Staphylococcus aureus. Put plainly: In vitro minimum inhibitory concentration against Methicillin-resistant Staphylococcus aureus (GC 4543). The format is functional.
For assay [9], the system named is Staphylococcus aureus. The experiment in a line: In vitro minimum inhibitory concentration against Methicillin-resistant Staphylococcus aureus (GC 4542). The format is functional.
Assay [10] has as its system Enterococcus faecium. Put plainly: In vitro minimum inhibitory concentration against vancomycin-susceptible Enterococcus faecium (GC 4557). The format is functional.
The test system of another assay is Micrococcus luteus. Put plainly: In vitro minimum inhibitory concentration against Micrococcus lutea (GC 4562). The format is functional.
Assay [11] relates to Enterococcus faecalis. Put plainly: In vitro minimum inhibitory concentration against vancomycin-susceptible Enterococcus faecalis (GC 4552). The format is functional.
The subject of the next assay is Streptococcus agalactiae. The experiment in a line: In vitro minimum inhibitory concentration against Streptococcus agalactiae (GC4564).
Assay [12] has as its system Staphylococcus aureus. The experiment in a line: In vitro minimum inhibitory concentration against Methicillin-resistant Staphylococcus aureus (GC 1131). The format is functional.
The test system of assay [13] is Enterococcus faecium. Put plainly: In vitro minimum inhibitory concentration against vancomycin-resistant Enterococcus faecium (GC 2243). The format is functional.
Assay [14] relates to Staphylococcus aureus. Put plainly: In vitro minimum inhibitory concentration against Methicillin-resistant Staphylococcus aureus(GC 4545). The format is functional.
Assay [15] has as its system Staphylococcus haemolyticus. Put plainly: In vitro minimum inhibitory concentration against methicillin-susceptible Coagulase-negative Staphylococci (MSCNS) (GC 6257). The format is functional.
Assay [16] deals with Enterococcus faecalis. Put plainly: In vitro minimum inhibitory concentration against vancomycin-resistant Enterococcus faecalis (GC 2242). The format is functional.
Assay [17] concerns Staphylococcus haemolyticus. Put plainly: In vitro minimum inhibitory concentration against methicillin-resistant Coagulase-negative Staphylococci (MRCNS) (GC 4547)). The format is functional.
The test system of assay [18] is Enterococcus faecalis. Put plainly: In vitro minimum inhibitory concentration against vancomycin-susceptible Enterococcus faecalis (GC 4553). The format is functional.
The subject of assay [19] is Enterococcus faecalis. Put plainly: In vitro minimum inhibitory concentration against vancomycin-susceptible Enterococcus faecalis (GC 4555). The format is functional.
Assay [20] relates to Staphylococcus aureus. Put plainly: In vitro minimum inhibitory concentration against Methicillin-resistant Staphylococcus aureus (GC 2216). The format is functional.
The subject of assay [21] is Staphylococcus haemolyticus. The experiment in a line: In vitro minimum inhibitory concentration against methicillin-susceptible Coagulase-negative Staphylococci (MSCNS) (GC 4549)). The format is functional.
Assay [22] deals with Enterococcus faecalis. Put plainly: In vitro minimum inhibitory concentration against vancomycin-resistant Enterococcus faecalis (GC 6189). The format is functional.
Assay [23] has as its system Streptococcus pneumoniae. The experiment in a line: In vitro minimum inhibitory concentration against Penicillin resistant Streptococcus pneumoniae (GC 1894). The format is functional.
The subject of assay [24] is Staphylococcus aureus. Put plainly: In vitro minimum inhibitory concentration against Methicillin-resistant Staphylococcus aureus(GC 4541). The format is functional.
A further assay has as its system Bacillus cereus. Put plainly: In vitro minimum inhibitory concentration against Bacillus cereus (GC 4561) assay organism. The format is functional.
For another assay, the system named is Streptococcus pyogenes. The experiment in a line: In vitro minimum inhibitory concentration against Streptococcus pyogenes (GC 4563).
The subject of assay [25] is Staphylococcus aureus. Put plainly: In vitro minimum inhibitory concentration against Methicillin-resistant Staphylococcus aureus(GC 4544). The format is functional.
Assay [26] concerns Streptococcus pneumoniae. The experiment in a line: In vitro minimum inhibitory concentration against Penicillin susceptible Streptococcus pneumoniae (GC 6242). The format is functional.
Assay [27] deals with Enterococcus faecalis. Put plainly: In vitro minimum inhibitory concentration against vancomycin-susceptible Enterococcus faecalis (GC 2691). The format is functional.
In assay [28] the test system is Enterococcus faecalis. The experiment in a line: In vitro minimum inhibitory concentration against vancomycin-susceptible Enterococcus faecalis (GC 4554). The format is functional.
Assay [29] has as its system Staphylococcus aureus. Put plainly: In vitro minimum inhibitory concentration against glycopeptide tntermediate Staphylococcus aureus (GC 3051). The format is functional.
The test system of assay [30] is Staphylococcus haemolyticus. Put plainly: In vitro minimum inhibitory concentration against methicillin-resistant Coagulase-negative Staphylococci (MRCNS) (GC 4548)). The format is functional.
Assay [31] deals with Enterococcus faecium. Put plainly: In vitro minimum inhibitory concentration against vancomycin-susceptible Enterococcus faecium (GC 4556). The format is functional.
Another assay concerns Enterococcus sp. The experiment in a line: In vitro minimum inhibitory concentration against Enterococcus species (11 strains, including VRE). The format is functional.
The subject of a further assay is Streptococcus. The experiment in a line: In vitro minimum inhibitory concentration against Streptococcus Species (5 strains, including PRSP). The format is functional.

In general, MIC refers to the lowest concentration found to suppress growth. As for `C[C@@H](c1ccccc1)[C@@H]1NC(=O)CNC(=O)[C@H](CO)NC(=O)[C@@H]([C@@H](O)[C@@H]2CN=C(N)N2[C@H]2O[C@H](CO)[C@@H](O)[C@H](O)[C@@H]2O)NC(=O)[C@H]([C@H](O)[C@@H]2CN=C(N)N2)NC(=O)[C@@H](Cc2ccc3nc(-c4cccc(F)c4)oc3c2)NC1=O`, the MIC in assay [1] amounted to 8 µg/mL (≈ 7.34 µM); against Enterococcus faecalis [2], 64 µg/mL (≈ 58.7 µM); against Streptococcus pneumoniae [3], 16 µg/mL (≈ 14.7 µM); in [4], 4 µg/mL (≈ 3.67 µM); in the assay on Staphylococcus aureus [5] it was 8 µg/mL (≈ 7.34 µM); against Staphylococcus aureus [6], 16 µg/mL (≈ 14.7 µM). The MIC in the assay with Enterococcus faecium [7] is 16 µg/mL (≈ 14.7 µM); in the assay with Staphylococcus aureus [8], 8 µg/mL (≈ 7.34 µM); in the assay on Staphylococcus aureus [9] it was 8 µg/mL (≈ 7.34 µM); against Enterococcus faecium [10] it was 8 µg/mL (≈ 7.34 µM); in the assay on Micrococcus luteus, 2 µg/mL (≈ 1.83 µM); with Enterococcus faecalis [11] it was 64 µg/mL (≈ 58.7 µM). The MIC with Streptococcus agalactiae stood at 8 µg/mL (≈ 7.34 µM); in the assay with Staphylococcus aureus [12], 8 µg/mL (≈ 7.34 µM); against Enterococcus faecium [13] it was 32 µg/mL (≈ 29.4 µM); against Staphylococcus aureus [14], 8 µg/mL (≈ 7.34 µM); in assay [15] it was 4 µg/mL (≈ 3.67 µM); against Enterococcus faecalis [16] it was 32 µg/mL (≈ 29.4 µM). Moreover, the MIC came out at 8 µg/mL (≈ 7.34 µM) in assay [17]; 16 µg/mL (≈ 14.7 µM) in the assay on Enterococcus faecalis [18]; 64 µg/mL (≈ 58.7 µM) against Enterococcus faecalis [19]; 8 µg/mL (≈ 7.34 µM) with Staphylococcus aureus [20]; 16 µg/mL (≈ 14.7 µM) in assay [21]; 32 µg/mL (≈ 29.4 µM) in the assay with Enterococcus faecalis [22]. For the same molecule, the minimum inhibitory concentration (MIC) with Streptococcus pneumoniae [23] worked out at 16 µg/mL (≈ 14.7 µM); in the assay on Staphylococcus aureus [24] it was 16 µg/mL (≈ 14.7 µM); against Bacillus cereus, 64 µg/mL (≈ 58.7 µM); with Streptococcus pyogenes, 4 µg/mL (≈ 3.67 µM); against Staphylococcus aureus [25], 8 µg/mL (≈ 7.34 µM); in the assay with Streptococcus pneumoniae [26], 8 µg/mL (≈ 7.34 µM). Moreover, the MIC stood at 32 µg/mL (≈ 29.4 µM) against Enterococcus faecalis [27]; 64 µg/mL (≈ 58.7 µM) in the assay with Enterococcus faecalis [28]; 16 µg/mL (≈ 14.7 µM) in the assay with Staphylococcus aureus [29]; 4 µg/mL (≈ 3.67 µM) in [30]; 64 µg/mL (≈ 58.7 µM) against Enterococcus faecium [31]; 16 µg/mL (≈ 14.7 µM) against Enterococcus sp.. The same molecule had an MIC with Streptococcus of 4 µg/mL (≈ 3.67 µM).

For the molecule `C[C@@H](c1ccccc1)[C@@H]1NC(=O)CNC(=O)[C@H](CO)NC(=O)[C@@H]([C@@H](O)[C@@H]2CN=C(N)N2[C@H]2O[C@H](CO)[C@@H](O)[C@H](O)[C@@H]2O)NC(=O)[C@H]([C@H](O)[C@@H]2CN=C(N)N2)NC(=O)[C@@H](Cc2ccc3nc(-c4cccs4)oc3c2)NC1=O`, the values for the minimal inhibitory concentration (MIC) in the assay with Staphylococcus aureus [5], with Enterococcus sp. and with Streptococcus were 8 µg/mL (≈ 7.42 µM), 16 µg/mL (≈ 14.8 µM) and 16 µg/mL (≈ 14.8 µM), respectively.

As for `C[C@@H](c1ccccc1)[C@@H]1NC(=O)CNC(=O)[C@H](CO)NC(=O)[C@@H]([C@@H](O)[C@@H]2CN=C(N)N2[C@H]2O[C@H](CO)[C@@H](O)[C@H](O)[C@@H]2O)NC(=O)[C@H]([C@H](O)[C@@H]2CN=C(N)N2)NC(=O)[C@@H](Cc2ccc3nc(C=C(c4ccccc4)c4ccccc4)oc3c2)NC1=O`, the MIC in the assay on Staphylococcus aureus [5] was 8 µg/mL (≈ 6.81 µM); against Enterococcus sp., 8 µg/mL (≈ 6.81 µM); against Streptococcus, 4 µg/mL (≈ 3.41 µM).

As to `C[C@@H](c1ccccc1)[C@@H]1NC(=O)CNC(=O)[C@H](CO)NC(=O)[C@@H]([C@@H](O)[C@@H]2CN=C(N)N2[C@H]2O[C@H](CO)[C@@H](O)[C@H](O)[C@@H]2O)NC(=O)[C@H]([C@H](O)[C@@H]2CN=C(N)N2)NC(=O)[C@@H](Cc2ccc3nc(-c4ccc5c(c4)-c4ccccc4C5)oc3c2)NC1=O`, the MIC with Staphylococcus aureus [5] stood at 8 µg/mL (≈ 6.9 µM); against Enterococcus sp., 4 µg/mL (≈ 3.45 µM); against Streptococcus, 4 µg/mL (≈ 3.45 µM).
